According to patent publication EP0035641B1, “Cystein derivatives, process for their preparation and medicines containing them” (ALFA FARMACEUTICI S.p.A., priority 1980, dated 1981):
Read-outs that look alike come from different tables or passages of the source.

Key:
Carraghenin-Ödem = assay: Carrageenan-induced oedema test in rats (method of Winter et al.); assay type: in vivo; conditions: Ratten
Excerpt: Die entzündungshemmende Wirkung wurde an Hand des Versuches mit dem von Carraghenin hervorgerufenen beziehungsweise induzierten Ödem (Carraghenin-Ödem) an Ratten, welcher im wesentlichen nach der Verfahrensweise von C. A. Winter und Mitarbeitern, J. Pharm. Expt. Ther. […] durchgeführt wurde, bewertet. Die Ergebnisse dieser Versuche sind in der folgenden Tabelle I zusammengestellt.

[1] = tested on: durch das Reizmittel hervorgerufene Unterleibsschmerzkrümmungen; assay: Writhing test in mice (method of Wilkin et al.); assay type: in vivo, Mäusen; conditions: Mäuse; for ED50: Mus musculus, po, read-out: ED50 (Dosen, welche eine 50%ige Verminderung der Zusammenziehung herbeizuführen vermögen)
Description: Die schmerzlindernde Wirksamkeit wurde mit Hilfe des »Schmerzkrümmungsversuches« (»writhing test«) an Mäusen im wesentlichen nach der von Wilkin und Mitarbeitern in J. Pharm. Expt. Ther., 133 [1961 ], 409 beschriebenen Versuchsverfahrensweise bewertet. Repräsentative Versuche zeigten, daß die erfindungsgemäßen Verbindungen bei ihrer Verarbreichung in peroralen Dosen von etwa 30 bis 100 mg/kg gegenüber den Blindversuchen eine 50%ige Hemmung der durch das Reizmittel hervorgerufenen Unterleibsschmerzkrümmungen herbeiführten. Bei diesem Versuch zeigte sich, daß die schmerzlindernde Wirkung der erfindungsgemäßen Verbindung N-Acetyl-S-[D-2-(6'-methoxynaphth-2'-yl)-propionyl]-L-cystein (Verbindung der Beispiele 6 und 7) selbst 4 Stunden nach ihrer Verabreichung beträchtlich war.

Granulome = assay: Cotton pellet granuloma test (method of Meier et al.); assay type: in vivo
Excerpt: Ein weiterer Nachweis der starken entzündungshemmenden Wirkung der erfindungsgemäßen Verbindungen erfolgte mit Hilfe des Granulomwattekügelchenversuches, welcher im wesentlichen wie von R. Meier und Mitarbeitern, Experientia, 6 [1950], 1469 beschrieben durchgeführt wurde. Bei diesem Versuch wurden Granuloma durch Einsetzen eines Wattekügelchens in den intraskapularen Bereich des Versuchtieres gebildet. Die Versuchsergebnisse sind in der folgenden Tabelle 11 zusammengestellt.

SMILES | Hemmung des Carraghenin-Ödemes in %, bezogen auf die Blindversuche (Carraghenin-Ödem; Perorale Dosis 3 mg/kg) | Hemmung des Carraghenin-Ödemes in %, bezogen auf die Blindversuche (Carraghenin-Ödem; Perorale Dosis 6 mg/kg) | Hemmung des Carraghenin-Ödemes in %, bezogen auf die Blindversuche (Carraghenin-Ödem; Perorale Dosis 12 mg/kg) | Hemmung des Carraghenin-Ödemes in %, bezogen auf die Blindversuche (Carraghenin-Ödem; Perorale Dosis 24 mg/kg) | schmerzlindernde Wirkung ([1]; 4 Stunden nach Verabreichung) | ED50 ([1]; 0.5 h, nach 30 Minuten) | ED50 ([1]; 4 h, nach 4 Stunden) | Hemmung des Granulomes in %, bezogen auf die Blindversuche (Granulome; Perorale Dosis 40 mg/kg) | Hemmung des Granulomes in %, bezogen auf die Blindversuche (Granulome; Perorale Dosis 80 mg/kg) | Hemmung des Carraghenin-Ödemes in %, bezogen auf die Blindversuche (Carraghenin-Ödem; Perorale Dosis 50 mg/kg)
COc1ccc2cc([C@H](C)C(=O)SC[C@H](NC(C)=O)C(=O)O)ccc2c1 [Beispiel 6 beziehungs-weise 7, N-Acetyl-S-[D-2-(6'-methoxynaphth-2'-yl)-propionyl]-L-cystein] | −42% | −42% | −45% | −58% | beträchtlich | 25 mg/kg | 10 mg/kg | −28% | −49% | 
CCC1Cc2cc(CC(=O)N[C@@H](CS)C(=O)O)ccc2O1 (stereo partly drawn) [Beispiel 3, N-[2-(2'-Äthyl-2',3'-dihydrobenzofuran-5'-yl)-acetyl]-L-cystein] |  |  |  |  |  |  |  | −30% |  | −48%
COC(=O)[C@H](CS)NC(=O)[C@@H](C)c1ccc2cc(OC)ccc2c1 [Beispiel 2, N-[D-2-(6'-Methoxynaphth-2'-yl)-propionyl]-L-cysteinmethylester] |  |  |  |  |  |  |  |  |  | −57%
COc1ccc2cc([C@H](C)C(=O)N[C@@H](CS)C(=O)O)ccc2c1 [Beispiel 4, N-[D-2-(6'-Methoxynaphth-2'-yl)-propionyl]-L-cystein] |  |  |  |  |  |  |  | −24% | −35% | 
